# Earlier results as cited in patent publication US20030130179A1, “Methods for identifying therapeutic targets for treating infectious disease” (priority 2000, published 2003).
# How the values were obtained:
# [1] = target: thymidylate synthase (TS) (Homo sapiens, UniProt P04818)
# thymidylate synthase (TS), sequence (P04818 2-313 limits assumed): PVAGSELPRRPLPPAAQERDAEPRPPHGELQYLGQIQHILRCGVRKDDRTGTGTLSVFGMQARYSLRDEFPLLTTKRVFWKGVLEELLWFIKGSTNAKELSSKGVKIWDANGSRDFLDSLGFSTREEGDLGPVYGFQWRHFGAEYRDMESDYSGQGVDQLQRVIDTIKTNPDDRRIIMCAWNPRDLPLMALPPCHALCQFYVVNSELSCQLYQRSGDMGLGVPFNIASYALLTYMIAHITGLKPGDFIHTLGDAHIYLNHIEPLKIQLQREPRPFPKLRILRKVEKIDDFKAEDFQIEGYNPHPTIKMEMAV
SMILES,"cytotoxicity profile ([1]; TS inhibitor, relation to TS expression (Copur et al., 1995))","Cytotoxicity ([1]; model cell-based systems, relation to TS protein levels)",toxicity to the host (colon and breast cancer; animal models),efficacy (colon and breast cancer; colon and breast cancer animal models)
O=c1[nH]c(=O)n([C@@H]2O[C@H](CO)[C@@H](O)[C@H]2O)cc1F [5-fluorouridine],more toxic to the cells which express low amounts of the enzyme,–,–,–
COC(=O)[C@H](C)NP(=O)(OC[C@H]1O[C@@H](n2cc(/C=C/Br)c(=O)[nH]c2=O)C[C@@H]1O)Oc1ccccc1 (stereo partly shown) [NB1011],–,proportional to TS protein levels,little or no toxicity to the host,demonstrated efficacy against colon and breast cancer
